Source: US20220280513A1, “ENHANCING THE ANTIVIRAL EFFICACY OF RNA VIRUS INHIBITION BY COMBINATION WITH MODULATORS OF PYRIMIDINE METABOLISM” (The Board of Trustees of the Leland Stanford Junior …, priority 2019, published 2022)

How the values were obtained:
DENV-2 virus = test: DENV antiviral assay, DENV-Luc replication in A549 cells (FIGS. 8 and 9); format: cell-based, dengue serotype 2 (DENV-2) strain 16681
Experimental: DENV-Luc reporter virus generation: The design of the pDENV-Luc infectious clone derived from dengue serotype 2 (DENV-2) strain 16681 was described in detail by Marceau et al (Marceau et al., 2016). The plasmid was linearized with Xbal and in vitro transcribed into the genomic RNA of DENV-Luc virus using the T7 Megascript Kit (Ambion) in the presence of m7G(5′)ppp(5′)G RNA Cap Structure Analog (NEB). 5 μg DENV-Luc RNA was electroporated into 2×10^6 Vero cells. The transfected cells were resuspended with Dulbecco's modified Eagle's medium (DMEM; Invitrogen) with 10% FBS and 100 U/ml penicillin-streptomycin and transferred into a T-175 flask incubated at 37° C. with 5% CO2. Supernatants were collected and replenished with fresh medium every 24 h from day 17 to 24 post-transfection, pooled together, clarified by centrifugation and stored in aliquots at −80° C. The amount of infectious DENV-Luc virus in the stock was titrated using the TCID50 assay and calculated by the Spearman & Kärber algorithm as described previously (Hierholzer and Killington, 1996).
DENV antiviral assays (For FIGS. 8 and 9): A549 cells were plated overnight at 5,000 cells/well in 96-well plates in complete DMEM and incubated for 24 h at 37° C. Cells were then treated with pyrimidine de novo synthesis inhibitors, and/or salvage inhibitors, and/or R1479 in DMEM supplemented with 20 μM uridine. Four hours after drug addition, cells were infected with DENV-2 virus at a MOI=0.1. After 72 h, DENV-Luc replication was monitored by the production of Renilla luciferase, which was measured using the Renilla-Glo Luciferase Assay System (Promega) according to the specifications of the manufacturer. For the accompanying cell viability assay, A549 cells were seeded at 5,000 cells/well in 96-well plates in complete DMEM and incubated for 24 h at 37° C. Cell were then treated with pyrimidine de novo synthesis inhibitors, and/or salvage inhibitors, and/or R1479 in DMEM supplemented with 20 μM uridine. Following 48 h treatment, cell viability was monitored by ATP levels, which was measured using the CellTiter-Glo Luciferase Assay System (Promega) according to the specifications of the manufacturer.

[1] = dose of 1 g/kg; cited from earlier work

O=c1ccn([C@@H]2C=C(CO)[C@@H](O)[C@H]2O)c(=O)[nH]1 [CPU, 1-((1R,4R,5S)-4,5-dihydroxy-3-(hydroxymethyl)cyclopent-2-en-1-yl)pyrimidine-2,4(1H,3H)-dione]
dengue virus replication, combination (DENV-2 virus; CPU (500 μM) combined with 1 μM GSK983, 20 μM uridine): suppressed dengue virus
antiviral activity as single agent (DENV-2 virus; single agents, 20 μM uridine): neither GSK983 nor CPU were effective
toxicity in mice [1]: does not show appreciable toxicity
